Data taken from patent US6423749B1, “Pharmaceutical composition for injection based on paracetamol” (Aziende Chimiche Riunite Angelini Francesco A.C.R.A.F. …, priority 1998, dated 2002).

Tests used:
[1] = cited from earlier work
[2] = Solubility of paracetamol, HPLC analysis of supernatant after centrifugation; format: physicochemical; settings: stirred 2 hours at room temperature
Description: The PEG400 was added to the paracetamol at room temperature. This mixture was then kept stirring at room temperature for 2 hours.
4 ml of the above-mentioned suspension were centrifuged in an Eppendorf tube at 25° C. for 30 minutes at a speed of 7,000 rpm.
The absolute ethanol was added to the paracetamol at room temperature. This mixture was then kept stirring at room temperature for 2 hours.
4 ml of the above-mentioned suspension were centrifuged in an Eppendorf tube at 4° C. for 40 minutes at a speed of 7,000 rpm.

solubility of the paracetamol ([2]; in PEG-400, centrifuged at 25° C. for 30 minutes): 18-19%
solubility of the paracetamol ([2]; in absolute ethanol, centrifuged at 4° C. for 40 minutes): 9-10%
Compound: CC(=O)Nc1ccc(O)cc1 [paracetamol]
amount of paracetamol dissolved ([1]; 30% propylene glycol, 40% PEG400 and 30% water, 20° C., WO 98/05314): about 200 mg/ml
solubility in water ([1]; water, The Merck Index, 12th edition): very slightly soluble
